This is an account of results in patent US11840489B2, “Symbiosis-promoting agent and method for promoting symbiosis of arbuscular mycorrhizal fungi” (TOYOTA JIDOSHA KABUSHIKI KAISHA, priority 2020, dated 2023).

Data set [1] relates to arbuscular mycorrhizal fungi. The experiment in a line: Infection rate of arbuscular mycorrhizal fungi in chives, soil with cystathionine, GSH or Phoron (Comparative Example 2). The format is in vivo, Rhizophagus irregularis DAOM197198. The conditions noted are these: 500 spores, 1 month, FIG. 6; for infection rate (amount of hyphae per root length): 0.1 or 1 mM in soil, vs control with 500 spores. How it is done:
(§1) Specifically, monocotyledonous plants of Allium (chives; Allium schoenoprasum) were infected with arbuscular mycorrhizal fungi (Rhizophagus irregularis DAOM197198), and the infection rate (%) of the mycorrhizal fungi that had invaded inside the roots was determined.
(§2) Plants were infected with arbuscular mycorrhizal fungi in the same manner as in Example 2. That is, the medium (one-tenth of the amount, Hoagland No. 2 basal salt mixture (SIGMA), 0.1 mM KNO3) was added to fertilizer-free soil. As control samples, sterilized chive seeds were directly seeded in soil supplemented with spores of arbuscular mycorrhizal fungi (4,000 spores) and in soil supplemented with the spores and GSSG (10 or 100 microM). The plants were allowed to grow at 23 degrees C. with 16-hour light and 8-hour dark cycles for 4 weeks. Thereafter, chives were dug out, the arbuscular mycorrhizal fungi inside the root were stained with ink, and the infection rate of the mycorrhizal fungi (the amount of hyphae per root length (%)) was determined with observation under a microscope.
In the same manner as in Example 3, the medium (one-tenth of the amount, Hoagland No. 2 basal salt mixture (SIGMA), 0.1 mM KNO3) was added to fertilizer-free soil. As control samples, sterilized chive seeds were directly seeded in soil supplemented with spores of arbuscular mycorrhizal fungi (500 spores and 1,000 spores) and in soil supplemented with the 500 spores, cystathionine (0.1 or 1 mM), GSH (0.1 or 1 mM), and Phoron (0.1 or 1 mM). The plants were allowed to grow at 23 degrees C. with 16-hour light and 8-hour dark cycles for 1 month. Thereafter, chives were dug out, the arbuscular mycorrhizal fungi inside the root were stained with ink, and the infection potential of the mycorrhizal fungi (the amount of hyphae per root length (%)) was determined with observation under a microscope.

Data set [2] has as its system arbuscular mycorrhizal fungi. The data set is described as follows: Infection rate of arbuscular mycorrhizal fungi in chives, soil supplemented with cystathionine (Example 4). The format is in vivo. The settings on record: 1 mM in soil, 4 weeks, vs cystathionine-free control, FIG. 4. The method, then:
Chives were used in this example. The medium (one-tenth of the amount, Hoagland No. 2 basal salt mixture (SIGMA), 0.1 mM KNO3) was added to fertilizer-free soil. As control samples, sterilized chive seeds were directly seeded in soil supplemented with spores of arbuscular mycorrhizal fungi (500 or 1,000 spores) and in soil supplemented with the spores and cystathionine (0.1 or 1 mM). The plants were allowed to grow at 23 degrees C. with 16-hour light and 8-hour dark cycles for 4 weeks. Thereafter, chives were dug out, the arbuscular mycorrhizal fungi inside the root were stained with ink, and the infection rate of the mycorrhizal fungi (the amount of hyphae per root length (%)) was determined with observation under a microscope.

Data set [3] deals with arbuscular mycorrhizal fungi (Rhizophagus irregularis DAOM197198). The conditions noted are these: 30 degrees C., 1 week, FIG. 7. How it is done: The modified M medium (0.3% gerlite, Becard and Fortin, 1988 New phytologist, 108, 211-218) was supplemented with oxidized glutathione (10 microM or 100 microM), spores of arbuscular mycorrhizal fungi (Rhizophagus irregularis DAOM197198) were inoculated, and culture was conducted at 30 degrees C. for 4 weeks. For comparison, arbuscular mycorrhizal fungi were cultured in the same manner, except that oxidized glutathione was not added. The number of hyphae elongated outside of the circle (a radius of 7.5 mm) centered on the inoculated portion of the medium was counted, and the extent of elongation was determined based on the number of spores.
In the same manner as in Example 1, reduced glutathione (10 mM) was added to the modified M medium (0.3% gerlite), spores of arbuscular mycorrhizal fungi (Rhizophagus irregularis DAOM197198) were inoculated therein, and culture was conducted at 30 degrees C. for 1 week. For comparison, arbuscular mycorrhizal fungi were cultured in the same manner, except that reduced glutathione was not added.

Data set [4] shares this test system. The data set is described as follows: Hyphal elongation of arbuscular mycorrhizal fungi in modified M medium, 4 weeks (Example 1). The format is cell-based. The settings on record: 10 microM or 100 microM in medium, 30 degrees C., vs control without addition, p less than 0.05, Dunnett's test, n 16-19, FIG. 1.
Data set [5] has the same test system. The data set is described as follows: Infection rate of arbuscular mycorrhizal fungi in roots of Lotus japonicus grown in supplemented soil (Example 2). The conditions noted are these: Lotus japonicus, 4,000 spores, 4 weeks, FIG. 2. The format is in vivo. The method, then:
Specifically, plants of Leguminosae (Lotus japonicus) were infected with arbuscular mycorrhizal fungi (Rhizophagus irregularis DAOM197198) in soil supplemented with GSSG, and the infection rate (%) of the mycorrhizal fungi invaded inside the roots was determined.
At the outset, the medium (one-tenth of the amount, Hoagland No. 2 basal salt mixture (SIGMA), 0.1 mM KNO3) was added to fertilizer-free soil. Also, control soil supplemented with spores of arbuscular mycorrhizal fungi (4,000 or 6,000 spores) and soil supplemented with spores of arbuscular mycorrhizal fungi (4,000 spores) and GSSG (10 or 100 microM) were prepared. Subsequently, seeds of Lotus japonicus (3 days after seeding) that had germinated in agar medium were transplanted therein. The plants were allowed to grow at 23 degrees C. with 16-hour light and 8-hour dark cycles for 4 weeks. Thereafter, Lotus japonicus was dug out, the arbuscular mycorrhizal fungi inside the root were stained with ink, and the infection rate of the mycorrhizal fungi (the amount of hyphae per root length (%)) was determined with observation under a microscope.

Data set [6] shares this test system. The experiment in a line: Infection rate of arbuscular mycorrhizal fungi in roots of chives (Allium schoenoprasum) grown in supplemented soil (Example 3). The format is in vivo. The settings on record: chives, 4,000 spores, 10 or 100 microM in soil, 4 weeks; vs control; Dunnett's test, n=8; FIG. 3. How it is done: as §1, §2
Data set [7] concerns root nodule bacteria (Mesorhizobium loti). The experiment in a line: Root nodule bacterial infection of Lotus japonicus: root nodules and infection hyphae (Comparative Example 1). The format is in vivo. The conditions noted are these: 10 or 100 microM, FIG. 5. How it is done: In this comparative example, root nodule bacteria from Lotus japonicus plants (Mesorhizobium loti, a transformant comprising a fluorescent protein (DsRED) introduced thereinto) were used. Vermiculite was supplemented with B&D medium (Broughton and Dilworth, 1971), KNO3 (final concentration: 0.1 mM), root nodule bacteria, and oxidized glutathione at 0, 10, or 100 microM to prepare media. The resulting media (50 ml) were added to 300 ml of fertilizer-free soil (vermiculite) in a pot, and young plants of Lotus japonicus 3 days after seeding were planted therein. The infection hyphae that serve as the routes of infection with root nodule bacteria formed in the root hair cells of Lotus japonicus and the root nodules that are symbiotic organs formed in the roots of Lotus japonicus were examined 1 week and 2 weeks after the growth.

In the case of `CC(C)=CC(=O)C=C(C)C` [Phoron, reference compound], the “infection rate (amount of hyphae per root length)” value in data set [1] is “inhibited”.

In the case of `NC(CCSCC(N)C(=O)O)C(=O)O` (centres unmarked) [cystathionine, 2-amino-4-(2-amino-2-carboxy-ethyl)thio-butanoic acid], in data set [2], the “infection rate of the mycorrhizal fungi (amount of hyphae per root length)” value is reported as “significantly enhanced”. Further, the “infection rate compared with the sample supplemented with 1,000 spores” value in data set [1] (1 mM) is “equivalent”. For the same compound, the “infection rate (amount of hyphae per root length)” value in data set [1] is listed as “enhanced”.

For the compound `N[C@@H](CCC(=O)N[C@@H](CS)C(=O)NCC(=O)O)C(=O)O` [reduced glutathione, N—(N-gamma-L-glutamyl-L-cysteinyl)glycine], the “infection rate (amount of hyphae per root length)” value in data set [1] is reported as “inhibited”. In addition, in data set [3] (10 mM), the “hyphal elongation of arbuscular mycorrhizal fungi at high concentration” value is listed as “no hyphal elongation was observed” and the spore survival entry is given as “died”. Also, in data set [3] (medium supplemented with reduced glutathione, vs no addition), the “hyphal elongation of arbuscular mycorrhizal fungi” value is on record as “deteriorated hyphal elongation”.

For the compound oxidized glutathione, the “hyphal elongation (number of hyphae elongated outside circle of radius 7.5 mm, per number of spores)” value in data set [4] was “significant effects of promoting hyphal elongation”. The “infection rate compared with control inoculated with 1.5 times greater amount of spores (6,000 spores)” value in data set [5] (10 microM) was “equivalent”. Also, the “infection rate of the mycorrhizal fungi (amount of hyphae per root length)” value in data set [5] (10 or 100 microM in soil, vs GSSG-free control (4,000 spores), Dunnett's test, n=8) is listed as “significantly enhanced”. Also, the “infection rate compared with control inoculated with 1.5 times greater amount of spores (6,000 spores)” value in data set [5] (100 microM) is given as “enhance”. The “infection rate of the mycorrhizal fungi (amount of hyphae per root length)” value in data set [6] is given as “significantly enhanced”. In addition, in data set [7] (1 week after the growth), the “formation of infection hyphae” value is reported as “significant inhibitory effects” and the “formation of root nodules” value is “significant inhibitory effects”. Besides, in data set [7] (2 weeks after the growth), the “inhibitory effects on formation of infection hyphae” value is listed as “not observed” and the “inhibitory effects on formation of root nodules” value is on record as “not observed”.
